In patent publication US20070213359A1 (ACADIA Pharmaceuticals Inc., priority 2005, published 2007):
Read-outs that look alike come from different tables or passages of the source.

Target: Ghrelin receptor (Homo sapiens, UniProt Q92847)
Test: Receptor Selection and Amplification Technology (R-SAT) assay
Assay type: cell-based
Design: expressed in transfected cells; host or cells: NIH3T3
Conditions: for IC50: negative logarithm of ligand concentration causing 50% inhibition of constitutive receptor response, transfected NIH3T3 cells, '—' not defined (nd used separately), read-out: RSAT pIC50 (converted); for Emax: read-out: RSAT Eff(%)
[1] = percent inhibition at saturating ligand, normalized to reference ligand Substance P analog = 100%

Ghrelin receptor, sequence (Q92847 whole entry): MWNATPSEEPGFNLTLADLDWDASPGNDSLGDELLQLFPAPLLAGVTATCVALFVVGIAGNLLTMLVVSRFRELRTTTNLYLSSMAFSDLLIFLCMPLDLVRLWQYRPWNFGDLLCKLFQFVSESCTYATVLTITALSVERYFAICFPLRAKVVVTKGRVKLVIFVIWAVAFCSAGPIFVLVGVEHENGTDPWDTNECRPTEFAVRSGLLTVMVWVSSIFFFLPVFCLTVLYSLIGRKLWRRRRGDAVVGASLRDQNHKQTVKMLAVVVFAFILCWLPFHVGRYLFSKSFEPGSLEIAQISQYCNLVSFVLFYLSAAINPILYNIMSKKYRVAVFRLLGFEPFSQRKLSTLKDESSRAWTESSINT

| SMILES | IC50 [µM] | Emax [1] [%] | Emax [%] |
| --- | --- | --- | --- |
| CC(=O)c1cn(CC(O)CN2CCC(Oc3ccccc3Cl)CC2)c2ccccc12 (stereo not drawn) | 3.16 | 69 | – |
| CC(=O)CCc1cn(CCCN2C3CCC2CC(OCC2CC2)C3)c2ccccc12 (stereo not drawn) | 3.16 | 103 | – |
| O=C(c1cn(CCCN2CCC(O)(Cc3ccccc3)CC2)c2ccccc12)C(F)(F)F | 3.98 | 111 | – |
| CC(=O)c1cn(CCCN2CCC(C(=O)c3ccccc3)CC2)c2ccccc12 | 5.01 | 64 | – |
| CC(=O)c1cn(CC(O)CN2CCC(C(=O)c3ccccc3)CC2)c2ccccc12 (stereo not drawn) | 6.31 | 26 | – |
| COc1cccc2c(C(C)=O)cn(CCCN3CCC(S(=O)(=O)c4ccc(Cl)cc4)CC3)c12 | 10 | 71 | – |
| CC(=O)c1cn(CCCN2CCC(C(=O)c3ccccc3)CC2)c2ccc(Br)cc12 | 10 | 60 | – |
| CCCOC1CCN(CCCn2cc(CCC(C)=O)c3ccccc32)CC1 | 15.8 | 75 | – |
| CC(=O)c1cn(CCCN2CCC(c3nc(-c4cccnc4)no3)CC2)c2ncccc12 | 20 | 55 | – |
| COc1ccc2c(c1)c(C(C)=O)cn2CCCN1C2CCC1CC(OCC1CC1)C2 (stereo not drawn) | 31.6 | 74 | – |
| COc1cccc2c(C#N)cn(CCCN3CCC(c4nc(-c5ccncc5)no4)CC3)c12 | – | 40 | – |
| CC(=O)c1c(C)n(CCCN2CCCC(Oc3ccc(Cl)cc3)C2)c2c(Br)cccc12 (stereo not drawn) | – | – | 24 |
| CC(=O)c1c(C)n(CCCN2CCCC(Cc3ccccc3Cl)C2)c2c(Br)cccc12 (stereo not drawn) | – | – | 5 |
| CC(=O)c1c(C)n(CCCN2CCC(Cc3ccccc3Cl)C2)c2c(Br)cccc12 (stereo not drawn) | – | – | 38 |
| COc1cccc2c(C(C)=O)cn(CC(C)CN3CCCC(Oc4ccc(Cl)cc4)C3)c12 (stereo not drawn) | – | – | -1 |
| COc1cccc2c(C(C)=O)cn(CC(C)CN3C4CCC3CC(Oc3ccc(F)cc3)C4)c12 (stereo not drawn) | – | – | 44 |
| COc1cccc2c(C(C)=O)cn(CC(C)CN3CCC(CCOc4ccc(Cl)cc4)CC3)c12 (stereo not drawn) | – | – | 22 |
| O=C(c1cn(CCCN2CCCC(Cc3ccccc3Cl)C2)c2ncccc12)C(F)(F)F (stereo not drawn) | – | 27 | – |
| O=C(c1cn(CCCN2CCC(Oc3cccc(Cl)c3)CC2)c2ncccc12)C(F)(F)F | – | 23 | – |
| CC(CN1C2CCC1CC(Oc1ccc(F)cc1)C2)Cn1cc(C(=O)C(F)(F)F)c2cccnc21 (stereo not drawn) | – | 35 | – |

| SMILES | IC50 [µM] | Emax [1] [%] | Emax [%] |
| --- | --- | --- | --- |
| CC(=O)c1cn(CCCN2CCCC(Oc3ccc(Cl)cc3)C2)c2ncccc12 (stereo not drawn) | – | 53 | – |
| CC(=O)c1cn(CCCN2CCCC(Oc3ccc(Cl)cc3)C2)c2c(C#N)cccc12 (stereo not drawn) | – | – | 31 |
| CC(=O)c1cn(CCCN2C3CCC2CC(CC(=O)c2ccc(Cl)cc2)C3)c2c(C#N)cccc12 (stereo not drawn) | – | – | 31 |
| CCCCC1CCN(CCn2cc(C(C)=O)c3ccccc32)CC1 | – | – | 23 |
| COc1ccc2[nH]c3c(c2c1)CCN(CC(C)Cn1c(=O)sc2ccccc21)C3 (stereo not drawn) | – | -10 | – |
| COc1ccc2[nH]c3c(c2c1)CCN(CCCCn1cc(C(C)=O)c2ccccc21)C3 | – | 9 | – |
| CC(=O)c1cn(CC(C)CN2CCC(C(=O)c3ccccc3)CC2)c2ccccc12 (stereo not drawn) | – | – | 2 |
| CC(=O)c1cn(CCCCN2CCC(C(=O)c3ccccc3)CC2)c2ccccc12 | – | – | 38 |
| CC(=O)c1cn(CCCCN2CCC(Oc3ccc(F)cc3)CC2)c2ccccc12 | – | – | 41 |
| CC(=O)c1cn(CC(O)CN2CCN(C(C)c3ccccc3)CC2)c2ccccc12 (stereo not drawn) | – | – | 23 |
| CC(=O)c1cn(CC(C)CN2CCC(O)(Cc3ccccc3)CC2)c2ccccc12 (stereo not drawn) | – | – | -3 |
| CC(=O)c1cn(CCCCN2CCC(O)(Cc3ccccc3)CC2)c2ccccc12 | – | – | 24 |
| CC(=O)c1cn(CCCCN2C3CCC2CC(O)(c2ccc(F)cc2)C3)c2ccccc12 (stereo not drawn) | – | – | 2 |
| CCC(=O)c1cn(CCCN2C3CCC2CC(O)(c2ccc(F)cc2)C3)c2ccccc12 (stereo not drawn) | – | – | 18 |
| O=C(c1cn(CCCN2CCC(S(=O)(=O)c3ccc(Cl)cc3)CC2)c2ccccc12)C(F)(F)F | – | – | 6 |
| CCC(=O)c1cn(CCCN2CCC(S(=O)(=O)c3ccc(Cl)cc3)CC2)c2ccccc12 | – | – | 1 |
| CCN(CC)C(=O)C1CCCN(CCCn2cc(C(C)=O)c3cccc(OC)c32)C1 (stereo not drawn) | – | – | 16 |
| COc1cccc2c(C(C)=O)cn(CCCN3C4CCC3CC(O)(c3ccc(F)cc3)C4)c12 (stereo not drawn) | – | – | 3 |
| CC(=O)c1cn(CCCN2CCC(CCOc3ccc(Cl)cc3)CC2)c2c(Cl)cccc12 | – | – | 53 |
| CC(=O)c1cn(CCCN2CCN(CCOc3ccc(Cl)cc3)CC2)c2c(C)cccc12 | – | – | 53 |

| SMILES | IC50 [µM] | Emax [1] [%] | Emax [%] |
| --- | --- | --- | --- |
| CC(=O)c1cn(CCCN2CCN(CCOc3ccc(Cl)cc3)CC2)c2c(Br)cccc12 | – | – | 12 |
| COc1cccc2c(C(=O)C3CC3)cn(CCCN3CCN(CCOc4ccc(Cl)c5ccccc45)CC3)c12 | – | – | 44 |
| CC(=O)c1cn(CCCN2CCN(CCOc3ccc(Cl)cc3)CC2)c2c(Cl)cccc12 | – | – | 32 |
| COc1cccc2c(C(=O)NCc3cccc(C)c3)cn(CCCN3CCN(CCOc4ccc(Cl)c5ccccc45)CC3)c12 | – | – | 2 |
| COc1cccc2c(C(=O)NCc3cccc(Cl)c3)cn(CCCN3CCN(CCOc4ccc(Cl)c5ccccc45)CC3)c12 | – | – | 59 |
| CC(=O)c1c(C)n(CCCN2CCC3(CC2)CC(=O)c2ccccc2O3)c2c(Br)cccc12 | – | – | 8 |
| CCc1cccc2c(C(C)=O)cn(CCCN3CCCC(Oc4ccc(Cl)cc4)C3)c12 (stereo not drawn) | – | – | 13 |
| COc1cccc2c(C(C)=O)cn(CC(C)CN3CCC4(CC3)CC(=O)c3ccccc3O4)c12 (stereo not drawn) | – | – | 55 |
| CC(CN1CCC2(CC1)CC(=O)c1ccccc1O2)Cn1cc(C(=O)C(F)(F)F)c2cccnc21 (stereo not drawn) | – | 26 | – |
| O=C(c1cn(CCCN2CCCC(Oc3ccc(Cl)cc3)C2)c2ncccc12)C(F)(F)F (stereo not drawn) | – | 2 | – |
| CC(=O)c1cn(CCCN2CCC(CCOc3ccc(Cl)cc3)CC2)c2c(C#N)cccc12 | – | – | 27 |
| CC(=O)c1c(C)n(CCCN2CCN(CCOc3ccc(Cl)cc3)CC2)c2c(Br)cccc12 | – | – | -13 |
| CC(=O)c1c(C)n(CCCN2CCC(c3nc(-c4ccncc4)no3)CC2)c2c(Br)cccc12 | – | – | 25 |
| O=C(c1cn(CCCN2CCN(c3ncc(C(F)(F)F)cc3Cl)CC2)c2ncccc12)C(F)(F)F | – | 27 | – |
| O=C(c1cn(CCCN2CCN(CCOc3ccc(Cl)cc3)CC2)c2ncccc12)C(F)(F)F | – | 38 | – |
| O=C(c1cn(CCCN2CCC(c3nc(-c4ccncc4)no3)CC2)c2ncccc12)C(F)(F)F | – | 31 | – |
| O=C(c1cn(CCCN2CCC(c3nc(-c4cccnc4)no3)CC2)c2ncccc12)C(F)(F)F | – | 72 | – |
| CC(=O)c1cn(CCCN2CCN(CCOc3ccc(Cl)cc3)CC2)c2ncccc12 | – | 62 | – |
| COc1cccc2c(C#N)cn(CCCN3CCN(CCOc4ccccc4)CC3)c12 | – | 42 | – |
| CC(=O)c1cn(CCCN2C3CCC2CC(CC(=O)c2ccc(Cl)cc2)C3)c2ncccc12 (stereo not drawn) | – | 11 | – |

Second part, led by results:

| IC50 [µM] | Emax [1] [%] | SMILES | Emax [%] |
| --- | --- | --- | --- |
| 3.16 | 93 | CCCCC1CCN(CCCn2cc(C(C)=O)c3ccc(Br)cc32)CC1 | – |
| 3.16 | 73 | CC(=O)c1cn(CC(O)CN2CCC(Oc3ccc(Cl)cc3)CC2)c2ccccc12 (stereo not drawn) | – |
| 3.16 | 73 | COc1ccc2c(C(C)=O)cn(CCCN3CCC(C(C)c4ccccc4)CC3)c2c1 (stereo not drawn) | – |
| 3.98 | 121 | CC(=O)c1cn(CC(C)CN2CCC(Cc3ccccc3)CC2)c2ccccc12 (stereo not drawn) | – |
| 3.98 | 86 | CC(=O)c1cn(CCCCN2CCC(Cc3ccccc3)CC2)c2ccccc12 | – |
| 5.01 | 78 | COc1ccccc1C1CCN(CCCn2cc(CCC(C)=O)c3ccccc32)CC1 | – |
| 5.01 | 67 | CC(=O)c1cn(CCCN2CCC(Oc3ccccc3Cl)CC2)c2cc(Br)ccc12 | – |
| 6.31 | 112 | O=C(c1cn(CCCN2CCC(Cc3ccccc3)CC2)c2ccccc12)C(F)(F)F | – |
| 6.31 | 96 | CC(=O)c1cn(CCCNC2Cc3ccccc3C2)c2c(Cl)cccc12 | – |
| 6.31 | 39 | CCOC(=O)C1CCN(CCCn2cc(C(=O)CC)c3ccccc32)CC1 | – |
| 10 | 74 | CC(=O)c1cn(CCCN2C3CCC2CC(Oc2ccc(Cl)cc2)C3)c2cc(Br)ccc12 (stereo not drawn) | – |
| 15.8 | 53 | CCC(=O)c1cn(CCCN2CCC(C(=O)c3ccccc3)CC2)c2ccccc12 | – |
| 15.8 | 64 | COc1ccccc1C1CCN(CC(C)Cn2cc(C(C)=O)c3ccccc32)CC1 (stereo not drawn) | – |
| 15.8 | 74 | CC(=O)c1cn(CCCN2CCC(Oc3ccccc3Cl)CC2)c2ccc(Br)cc12 | – |
| 31.6 | 18 | CCCOC1CCN(CC(O)Cn2cc(C(C)=O)c3ccccc32)CC1 (stereo not drawn) | – |
| 251 | 58 | O=C(c1cn(CCCN2C3CCC2CC(O)(c2ccc(F)cc2)C3)c2ccccc12)C(F)(F)F (stereo not drawn) | – |
| 1580 | 92 | CC(=O)c1cn(CCCN2CCC(C(=O)c3ccccc3)CC2)c2c(Cl)cccc12 | – |
| – | 48 | COc1cccc2c(C#N)cn(CCCN3CCCC(Oc4ccc(Cl)cc4)C3)c12 (stereo not drawn) | – |
| – | 21 | COc1cccc2c(C#N)cn(CCCN3CCN(CCOc4ccc(Cl)c5ccccc45)CC3)c12 | – |
| – | 37 | O=C(c1cn(CCCN2CCC(CCOc3ccc(Cl)cc3)CC2)c2ncccc12)C(F)(F)F | – |
| – | 41 | COc1cccc2c(C#N)cn(CCCN3CCC4(CC3)CC(=O)c3ccccc3O4)c12 | – |
| – | -3 | COc1cccc2c(C#N)cn(CCCN3CCC(CCOc4ccc(Cl)cc4)CC3)c12 | – |
| – | -3 | O=C(c1cn(CCCNC2Cc3ccccc3C2)c2ncccc12)C(F)(F)F | – |
| – | 26 | O=C(c1cn(CCCNCCOc2ccccc2)c2ncccc12)C(F)(F)F | – |
| – | 51 | O=C(c1cn(CCCN2CCCN(CCc3ccccc3)CC2)c2ncccc12)C(F)(F)F | – |
| – | 88 | CC(=O)c1cn(CCCN2CCC(c3nc(-c4ccncc4)no3)CC2)c2ncccc12 | – |
| – | -23 | COc1cccc2c(C#N)cn(CCCN3CCN(CCOc4ccc(Cl)cc4)CC3)c12 | – |
| – | 30 | COc1cccc2c(C#N)cn(CCCN3CCN(Cc4ccc(Cl)cc4Cl)CC3)c12 | – |
| – | 23 | COc1cccc2c(C#N)cn(CCCN3CCC(c4nc(-c5cccnc5)no4)CC3)c12 | – |
| – | 27 | O=C(c1cn(CCCN2CCN(CCOc3ccccc3)CC2)c2ncccc12)C(F)(F)F | – |
